In patent EP3650451A1, “COMPOUNDS AND THEIR USES AS FLUORESCENT PROBES” (Consejo Superior de Investigaciones Cientificas, priority 2017, dated 2019):

Key:
[1] = Time evolution of the photophysical properties in water; format: physicochemical; set-up: key to φ: fluorescence quantum yield, fraction (0.65 = 65%); conditions: for kfl / knr / εmax / λab / λfl / τ / φ: water
Procedure: Indeed, the fluorescence yield remains constant for 7 hours. However, due to the oligomerization of hydrolysis product 6 and to the ensuing precipitation of the resulting oligomers, fluorescence efficiency gradually decreases in 24 hours, although it maintains a quantum yield of 65%. […] Indeed, the diffusion of the dye outside of the cell organelle, which occurs in dyes not covalently bonded thereto, is one of the main problems in the development of fluorescent biological markers because it entails a significant reduction in fluorescent efficiency and, thus, in the accuracy and reproducibility of the experiments. The rational design of probe 4 must, therefore, prevent this loss of fluorescence signal and improve the quality and accuracy of the measurements, thereby enhancing its applicability as a biological probe.

SCC38 = assay: Kinetics of cell labeling by flow cytometry; format: cell-based, human
Procedure: (§1) The cell assays were carried out on two human cell lines: SCC38 and HeLa. The SCC38 line is derived from human laryngeal epidermoid carcinoma patients, while HeLa, the first human cell line established in culture, is derived from cervical cancer. The culture medium used for both cell lines was DMEM (Dulbecco's Modified Eagle's Medium) supplemented with 10% of fetal bovine serum (FBS), 100 U/mL of penicillin, 200 µg/mL of streptomycin, 100 µmol/L of non-essential amino acids and 2 mmol/L of glutamine. The cultures were incubated at 37 °C and 5% of CO2.
(§2) The kinetics of cell labeling with 4 was studied by flow cytometry with the SCC38 and HeLa cell lines, using MitoTracker® Red as a control marker, both at a concentration of 50 nM. The staining times studied were 5, 15, 30 and 45 minutes. After staining, the medium was removed, washed with PBS, trypsinized and the pellet was resuspended in 500 µL of PBS and introduced in the cytometer after filtration. A Beckman Coulter Cytomics FC500 Flow Cytometry Analyzer was used (Scientific-Technical Services, Universidad de Oviedo). Part of the resuspended cells were also plated and observed under the microscope.

HeLa = assay: Kinetics of cell labeling by flow cytometry; format: cell-based, human; conditions: 50 nM, staining times 5, 15 and 30 min
Procedure: as §1, §2

SCC38 cells [2] = assay: Co-localization by co-staining with MitoTracker Red, fluorescence microscopy of live cells; format: cell-based, human; conditions: compound 4 50 nM, MitoTracker® Red 25 nM, 30 minutes
Procedure: as §1
These cell lines were stained with the fluorescent probes synthesized following the following protocol: 30,000-50,000 SCC38 cells were plated on 24-well glass-bottomed plates and cultured to 70% confluence. The culture medium was then removed from the well and washed at least three times with DMEM medium without additives. Next, 1 mL of DMEM and the corresponding fluorescent compound was added to the well. The cells were incubated at 37 °C for 30 minutes, after which the medium was removed and newly washed with DMEM. Lastly, complete medium was added and the cells were observed under the microscope. Microscopy analysis was performed using a Zeiss Axio Observer Z1 microscope with AxioCam MRM and ApoTome 2 (Carl Zeiss, Germany) with different 40X 63X oil immersion objectives. The cells were also stained with MitoTracker® Red CMXRos (Thermo Fisher), following the manufacturer's instructions, with the aim of carrying out comparative studies with the new fluorescent markers synthesized herein. Initially, both compounds 3 and 4 were used at a concentration of 50 nM, and staining time was also 30 minutes.
In order to confirm the specificity of the mitochondrial labeling, co-localization studies were carried out by co-staining with the commercial mitochondrial marker MitoTracker® Red in the cell line. Compound 4 was used at a concentration of 50 nM and MitoTracker® Red at 25 nM. Both compounds were added simultaneously and incubated for 30 minutes.

SCC38 cells [3] = assay: Inhibition of mitochondrial staining by (R)-palmitoylcarnitine (CACT substrate), flow cytometry; format: cell-based, human; conditions: co-incubation, probe 50 nm, (R)-palmitoylcarnitine 100, 250 and 500 nM
Procedure: The SCC38 cells were co-incubated with the indicated concentrations of (R)-palmitoylcarnitine and 50 nM of 4 (A) or 50 nM of MitoTracker (B) before analyzing by flow cytometry. The data represent the mean fluorescence intensity (MFI) of the stained cells (upper panels) and representative images of the cytometry profiles (lower panels). • Fig. 7.
To test if CACT was in fact involved in the channeling of 4 to the mitochondrial matrix, we firstly studied the effect of (R)-(+)-palmitoylcarnitine, a natural CACT substrate, in cell labeling by 4.

For `CC1=CC(C)=[N+]2C1=C(c1c(C)cc(C)cc1C)c1c(C)cc(C)n1[B-]21OC(=O)C[C@H](C[N+](C)(C)C)O1` (stereo partly shown) [Compound 4], which “effect of hydrolysis on fluorescence emission” value ([1]; in water) is on record?
The value was “does not entail a significant reduction in its fluorescence emission”.

And the “time for which the fluorescence yield remains constant” value ([1]; in water)?
Its value is 7 h.

And the quantum yield ([1]; in water, in 24 hours)?
The quantum yield was 65%.

What about the kfl ([1]; time 00:00 (hours:min)) of the same compound?
Its kfl is 1.14 10^8s^-1.

And the knr ([1]; time 00:00 (hours:min))?
Its knr is 0.23 10^8s^-1.

And the εmax ([1]; time 00:00 (hours:min))?
Its εmax is 3.8 10^4 M^-1 CM^-1.

And the λab ([1]; time 00:00 (hours:min))?
The λab was 499 nm.

What about the λfl ([1]; time 00:00 (hours:min)) of the same compound?
The λfl was 511 nm.

What about the τ ([1]; time 00:00 (hours:min)) of the same compound?
Its τ is 7.30 ns.

And the φ ([1]; time 00:00 (hours:min))?
Its φ is 0.83.

What about the kfl ([1]; time 00:10 (hours:min)) of the same compound?
Its kfl is 1.14 10^8s^-1.

What about the knr ([1]; time 00:10 (hours:min)) of the same compound?
Its knr is 0.24 10^8s^-1.

What about the εmax ([1]; time 00:10 (hours:min)) of the same compound?
Its εmax is 3.8 10^4 M^-1 CM^-1.

And the λab ([1]; time 00:10 (hours:min))?
Its λab is 498 nm.

And the λfl ([1]; time 00:10 (hours:min))?
The λfl was 511 nm.

What about the τ ([1]; time 00:10 (hours:min)) of the same compound?
The τ was 7.25 ns.

And the φ ([1]; time 00:10 (hours:min))?
The φ was 0.82.

What about the kfl ([1]; time 00:25 (hours:min)) of the same compound?
The kfl was 1.14 10^8s^-1.

What about the knr ([1]; time 00:25 (hours:min)) of the same compound?
The knr was 0.25 10^8s^-1.

What about the εmax ([1]; time 00:25 (hours:min)) of the same compound?
Its εmax is 3.8 10^4 M^-1 CM^-1.

And the λab ([1]; time 00:25 (hours:min))?
Its λab is 498 nm.

What about the λfl ([1]; time 00:25 (hours:min)) of the same compound?
The λfl was 511 nm.

And the τ ([1]; time 00:25 (hours:min))?
Its τ is 7.20 ns.

What about the φ ([1]; time 00:25 (hours:min)) of the same compound?
The φ was 0.82.

What about the kfl ([1]; time 00:50 (hours:min)) of the same compound?
The kfl was 1.16 10^8s^-1.

What about the knr ([1]; time 00:50 (hours:min)) of the same compound?
The knr was 0.24 10^8s^-1.

What about the εmax ([1]; time 00:50 (hours:min)) of the same compound?
Its εmax is 3.8 10^4 M^-1 CM^-1.

What about the λab ([1]; time 00:50 (hours:min)) of the same compound?
Its λab is 498 nm.

What about the λfl ([1]; time 00:50 (hours:min)) of the same compound?
Its λfl is 509 nm.

And the τ ([1]; time 00:50 (hours:min))?
The τ was 7.15 ns.

What about the φ ([1]; time 00:50 (hours:min)) of the same compound?
The φ was 0.83.

What about the kfl ([1]; time 01:20 (hours:min)) of the same compound?
The kfl was 1.17 10^8s^-1.

What about the knr ([1]; time 01:20 (hours:min)) of the same compound?
Its knr is 0.25 10^8s^-1.

And the εmax ([1]; time 01:20 (hours:min))?
Its εmax is 3.8 10^4 M^-1 CM^-1.

What about the λab ([1]; time 01:20 (hours:min)) of the same compound?
The λab was 498 nm.

What about the λfl ([1]; time 01:20 (hours:min)) of the same compound?
Its λfl is 509 nm.

And the τ ([1]; time 01:20 (hours:min))?
Its τ is 7.05 ns.

What about the φ ([1]; time 01:20 (hours:min)) of the same compound?
The φ was 0.83.

And the kfl ([1]; time 02:00 (hours:min))?
The kfl was 1.18 10^8s^-1.

And the knr ([1]; time 02:00 (hours:min))?
Its knr is 0.25 10^8s^-1.

And the εmax ([1]; time 02:00 (hours:min))?
The εmax was 3.8 10^4 M^-1 CM^-1.

And the λab ([1]; time 02:00 (hours:min))?
The λab was 497 nm.

And the λfl ([1]; time 02:00 (hours:min))?
Its λfl is 509 nm.

And the τ ([1]; time 02:00 (hours:min))?
Its τ is 7.00 ns.

What about the φ ([1]; time 02:00 (hours:min)) of the same compound?
Its φ is 0.83.

And the kfl ([1]; time 03:00 (hours:min))?
The kfl was 1.18 10^8s^-1.

And the knr ([1]; time 03:00 (hours:min))?
The knr was 0.26 10^8s^-1.

And the εmax ([1]; time 03:00 (hours:min))?
Its εmax is 3.8 10^4 M^-1 CM^-1.

What about the λab ([1]; time 03:00 (hours:min)) of the same compound?
Its λab is 497 nm.

What about the λfl ([1]; time 03:00 (hours:min)) of the same compound?
The λfl was 509 nm.

What about the τ ([1]; time 03:00 (hours:min)) of the same compound?
Its τ is 6.95 ns.

And the φ ([1]; time 03:00 (hours:min))?
Its φ is 0.82.

What about the kfl ([1]; time 04:00 (hours:min)) of the same compound?
The kfl was 1.19 10^8s^-1.

What about the knr ([1]; time 04:00 (hours:min)) of the same compound?
The knr was 0.26 10^8s^-1.

What about the εmax ([1]; time 04:00 (hours:min)) of the same compound?
The εmax was 3.8 10^4 M^-1 CM^-1.

And the λab ([1]; time 04:00 (hours:min))?
The λab was 497 nm.

What about the λfl ([1]; time 04:00 (hours:min)) of the same compound?
The λfl was 509 nm.

What about the τ ([1]; time 04:00 (hours:min)) of the same compound?
The τ was 6.90 ns.

And the φ ([1]; time 04:00 (hours:min))?
Its φ is 0.82.

And the kfl ([1]; time 05:00 (hours:min))?
Its kfl is 1.22 10^8s^-1.

And the knr ([1]; time 05:00 (hours:min))?
Its knr is 0.26 10^8s^-1.

And the εmax ([1]; time 05:00 (hours:min))?
Its εmax is 3.8 10^4 M^-1 CM^-1.

And the λab ([1]; time 05:00 (hours:min))?
Its λab is 497 nm.

What about the λfl ([1]; time 05:00 (hours:min)) of the same compound?
The λfl was 508 nm.

What about the τ ([1]; time 05:00 (hours:min)) of the same compound?
The τ was 6.80 ns.

What about the φ ([1]; time 05:00 (hours:min)) of the same compound?
The φ was 0.82.

What about the kfl ([1]; time 06:00 (hours:min)) of the same compound?
The kfl was 1.23 10^8s^-1.

And the knr ([1]; time 06:00 (hours:min))?
The knr was 0.26 10^8s^-1.

What about the εmax ([1]; time 06:00 (hours:min)) of the same compound?
Its εmax is 3.8 10^4 M^-1 CM^-1.

And the λab ([1]; time 06:00 (hours:min))?
The λab was 496 nm.

What about the λfl ([1]; time 06:00 (hours:min)) of the same compound?
Its λfl is 508 nm.

And the τ ([1]; time 06:00 (hours:min))?
The τ was 6.70 ns.

And the φ ([1]; time 06:00 (hours:min))?
The φ was 0.83.

And the kfl ([1]; time 07:00 (hours:min))?
Its kfl is 1.24 10^8s^-1.

And the knr ([1]; time 07:00 (hours:min))?
Its knr is 0.26 10^8s^-1.

What about the εmax ([1]; time 07:00 (hours:min)) of the same compound?
The εmax was 3.8 10^4 M^-1 CM^-1.

What about the λab ([1]; time 07:00 (hours:min)) of the same compound?
Its λab is 496 nm.

What about the λfl ([1]; time 07:00 (hours:min)) of the same compound?
Its λfl is 508 nm.

And the τ ([1]; time 07:00 (hours:min))?
The τ was 6.65 ns.

And the φ ([1]; time 07:00 (hours:min))?
The φ was 0.83.

And the kfl ([1]; time 24:00 (hours:min))?
The kfl was 1.03 10^8s^-1.

What about the knr ([1]; time 24:00 (hours:min)) of the same compound?
The knr was 0.54 10^8s^-1.

And the εmax ([1]; time 24:00 (hours:min))?
The εmax was 3.7 10^4 M^-1 CM^-1.

And the λab ([1]; time 24:00 (hours:min))?
Its λab is 496 nm.

And the λfl ([1]; time 24:00 (hours:min))?
Its λfl is 507 nm.

What about the τ ([1]; time 24:00 (hours:min)) of the same compound?
Its τ is 6.50 ns.

What about the φ ([1]; time 24:00 (hours:min)) of the same compound?
Its φ is 0.65.

And the “change of staining intensity with incubation time” value (SCC38; SCC38, 50 nM, staining times 5, 15 and 30 min)?
Its value is “clearly increased in intensity with incubation time”.

And the “labeling intensity at longer staining time” value (SCC38; new cytometry experiment, 45 min versus 30 min, cell line not stated)?
The value was “even more intense than with a time of 30 minutes”.

And the “change of staining intensity with incubation time” value (HeLa)?
Its value is “clearly increased in intensity with incubation time”.

And the “location of the stain in the mitochondria” value (SCC38 cells [2]; co-staining)?
The value was “preferably located in its interior (the mitochondrial matrix)”.

And the “co-localization with MitoTracker® Red” value (SCC38 cells [2]; added simultaneously)?
The value was “good co-localization”.

What about the cytotoxic effects (SCC38 cells [2]; simultaneous co-staining) of the same compound?
The cytotoxic effects was “without interferences or cytotoxic effects”.

And the “effect of (R)-palmitoylcarnitine on fluorescence intensity” value (SCC38 cells [3])?
The value was “concentration-dependent reduction of fluorescence intensity”.
